Where a name gives a salt, the structure may show the parent alone.
biological target: T1, human oxytocin receptor (Homo sapiens, UniProt P30559); test: Oxytocin binding in CHO cell membranes expressing human oxytocin receptors ([3H]oxytocin radioligand binding); settings: 100 nM
T1 construct: host or cells: CHO cells, stably transfected (pcDNA3.1 vector)
T1 sequence (P30559 1-389): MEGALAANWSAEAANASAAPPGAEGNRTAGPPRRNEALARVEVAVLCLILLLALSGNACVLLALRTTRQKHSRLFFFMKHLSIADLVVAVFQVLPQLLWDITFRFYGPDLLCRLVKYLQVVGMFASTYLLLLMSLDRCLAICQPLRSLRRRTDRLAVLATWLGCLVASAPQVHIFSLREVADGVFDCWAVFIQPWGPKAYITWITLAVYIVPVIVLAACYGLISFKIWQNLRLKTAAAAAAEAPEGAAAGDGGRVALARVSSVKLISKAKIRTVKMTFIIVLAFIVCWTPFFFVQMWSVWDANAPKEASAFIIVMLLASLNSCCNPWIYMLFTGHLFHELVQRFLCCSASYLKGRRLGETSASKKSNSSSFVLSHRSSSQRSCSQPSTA
Source text: Chinese Hamster Ovary (CHO) cells stably transfected with the human oxytocin recptor (cf. Tanizawa et al., U.S. Pat. No. 5,466,584 (1995) to Rohto Pharmaceutical Co. Ltd., Osaka, Japan) were obtained from M. Thibonnier, Case Western Reserve University School of Medicine, Cleveland, Ohio.
CHO cells transfected with the human oxytocin receptors obtained from M. Thibonnier (pcDNA3.1 vector) are allowed to grow to confluency (approx. >90%) in T-150 flasks under sterile conditions, in a cell culture medium consisting of F-12 Nutrient Mixture (HAM) with L-glutamine (Gibco Cat. #11765-054) containing 15 mM HEPES (Gibco Cat. #15630-080), 1% antibiotic/antimycotic (add 5 mL 1 00×, Gibco Cat. #15240-062 per 500 mL F-12), 400 μg/mL of Geneticin (add 4 mL of 50 mg/mL per 500 mL F-12) and 10% Fetal Bovine Serum (Qualified, heat inactivated, Gibco Cat. #16140-063). The medium is removed by aspiration and the cells are washed with 10 mL of Hank's Balanced Salt solution (Gibco Cat. #14175-095). The salt solution is removed by aspiration and the cells trypsinized with 5 mL of trypsin-EDTA (0.05% trypsin, 0.53 mM EDTA-4Na, Gibco Cat. #25300-070) for 1 min The trypsin is removed by aspiration and the cells dislodged by tapping. Cell Culture medium (e.g. 30 mL for 1:30 split) is immediately added and mixed well to inactivate trypsin. 1 mL of detached cells is added to new culture flasks containing fresh Cell Culture medium (e.g. into 25 mL per T-150 flask), and mixed gently. The cells are incubated at 37° C. in 5% CO2. The medium is changed at 3 to 4 days interval (or as appropriate). The cells grow to confluency (approx. >75%-95%) within 7-8 days. All steps are done under sterile conditions.
The cells are washed twice gently with Hank's Balanced Salt solution (eg, use 10 mL per T-150 flask). The excess solution is removed and the cells bathed for 15-30 min. in an enzyme-free Cell Dissociation Buffer (eg, use 8 mL Hank's Based, Gibco Cat. #13150-016 per T-150 flask) until cells are loosened. The contents are transferred to centrifuge tubes (50 mL size) kept in ice bath. All subsequent steps are done at 4° C. The tubes are centrifuged at 300×g for 15 min (1380 rpm on SORVAL, Model RT6000D, using rotor for 50 mL tubes). The supernatant is discarded and the cells suspended in homogenizing buffer (10 mM Tris-HCl containing 0.25 M sucrose and 1 mM EDTA, pH 7.4) ensuring that the volume of the buffer is about ten times the volume of the cell pellet. The cells are pooled into a centrifuge tube (50 mL) and homogenized with a Polytron at setting 6 for 10 sec. The homogenate is transferred into a Potter-Elvjehm homogenizer and homogenized with 3 strokes. The homogenate is centrifuged at 1500×g for 10 min at 4° C. (3100 rpm using SORVAL, model RT6000D, using rotor for 50 mL tubes). The pellet is discarded. The supernatant is centrifuged at 100,000×g for 60 min. at 4° C. (Beckman L8-80M ultracentrifuge; spin at 37,500 rpm with rotor type 70 Ti for 50 mL tubes; 38,000 rpm with type 80 Ti for 15 mL tubes; or 35,800 rpm with rotor type 45Ti). The supernantant is discarded and the pellet suspended in 3 to 4 mL of Tris buffer (50 mM TRIS-HCl, pH 7.4). The protein content is estimated by the Bradford or Lowry method. The volume of the membrane suspension is adjusted with the membrane buffer (50 mM Tris-HCl containing 0.1% BSA and 0.1 mM PMSF) to give 3.0 mg/mL (or as appropriate) of protein. The membranes are aliquoted and stored at −70° C.
In wells of a 96-well format microtiter plate, is added 90, 110 or 130 μL (to make up a final volume of 200 μL) of assay buffer containing 50 mM of Tris-HCl (pH 7.4), […], 1 mg % aprotinin, 1 mg % leupeptin, 2 mg % 1,10-phenanthroline, 10 mg % trypsin inhibitor, and 0.1 mM PMSF. The inhibitors are added on the day of the experiment. The components are mixed at room temperature, and then kept in ice bath following adjustment of the pH to 7.4. […]

| Compound | OT % inhibition @ 100 nM |
| --- | --- |
| Cc1cc(C(=O)N2Cc3ccc(C(=O)NCCCN(C)C)n3Cc3ccccc32)ccc1C1=CCCCC1 [Example 14, 10-[4-(1-Cyclohex-1-en-1-yl)-3-methylbenzoyl]-N-[3-(dimethylamino)propyl]-10,11-dihydro-5H-pyrrolo[2,1-c][1,4]benzodiazepine-3-carboxamide] | 57% |
| Cc1cc(C(=O)N2Cc3ccc(C(=O)N(C)CCN(C)C)n3Cc3ccccc32)ccc1C1=CCCCC1 [Example 15, 10-[4-(1-Cyclohex-1-en-1-yl)-3-methylbenzoyl]-N-[2-(dimethylamino)ethyl]-N-methyl-10,11-dihydro-5H-pyrrolo[2,1-c][1,4]benzodiazepine-3-carboxamide] | 99% |
| Cc1cc(C(=O)N2Cc3ccc(C(=O)N(C)CCCN(C)C)n3Cc3ccccc32)ccc1C1=CCCCC1 [Example 16, 10-[4-(1-Cyclohex-1-en-1-yl)-3-methylbenzoyl]-N-[3-(dimethylamino)propyl]-N-methyl-10,11-dihydro-5H-pyrrolo[2,1-c][1 ,4]benzodiazepine-3-carboxamide] | 99% |
| Cc1cc(C(=O)N2Cc3ccc(C(=O)NCCCn4ccnc4)n3Cc3ccccc32)ccc1C1=CCCCC1 [Example 18, 10-[4-(1-Cyclohex-1-en-1-yl)-3-methylbenzoyl]-N-[3-(1H-imidazol-1-yl)propyl]10,11-dihydro-5H-pyrrolo[2,1-c][1,4]benzodiazepine-3-carboxamide] | 41% |

Now from value to compound:

| OT % inhibition @ 100 nM | Compound |
| --- | --- |
| 90% | Cc1cc(C(=O)N2Cc3ccc(C(=O)N4CCCN(C)CC4)n3Cc3ccccc32)ccc1C1=CCCCC1 [Example 13, {10-[4-(1-Cyclohex-1-en-1-yl)-3-methylbenzoyl]-10,11-dihydro-5H-pyrrolo[2,1-c][1,4]benzodiazepin-3-yl}(4-methyl-1,4-diazepan-1-yl)methanone] |
| 86% | Cc1cc(C(=O)N2Cc3ccc(C(=O)N4CCC(N5CCCCC5)CC4)n3Cc3ccccc32)ccc1C1=CCCCC1 [Example 17, {10-[4-(1-Cyclohex-1-en-1-yl)-3-methylbenzoyl]-10,11-dihydro-5H-pyrrolo[2,1-c][1,4]benzodiazepin-3-yl}[4-(1-piperidinyl)-1-piperidinyl]methanone] |
| 82% | Cc1cc(C(=O)N2Cc3ccc(C(=O)N4CCC(N5CCCC5)CC4)n3Cc3ccccc32)ccc1C1=CCCCC1 [Example 19, {10-[4-(1-Cyclohex-1-en-1-yl)-3-methylbenzoyl]-10,11-dihydro-5H-pyrrolo[2,1c][1,4]benzodiazepin-3-yl}[4-(1-pyrrolidinyl)-1-piperidinyl]methanone] |
| 52% | Cc1cc(C(=O)N2Cc3ccc(C(=O)NCCN4CCCCC4)n3Cc3ccccc32)ccc1C1=CCCCC1 [Example 20, 10-[4-(1-Cyclohex-1-en-1-yl)-3-methylbenzoyl]-N-[2-(1-piperidinyl)ethyl]-10,11-dihydro-5H-pyrrolo[2,1-c][1,4]benzodiazepine-3-carboxamide] |

same assay, conditions: 100 nM, read-out: OT % inhibition @ 100 nM

| inhibition at 0.1 µM | Compound |
| --- | --- |
| 100% | COc1cc(C2=CCCCC2)c(Cl)cc1C(=O)N1Cc2ccc(C(=O)N(C)CCCN(C)C)n2Cc2ccccc21 [Example 2, 10-(5-Chloro-4-cyclohex-1-en-1-yl-2-methoxybenzoyl)-N-[3-(dimethylamino)propyl]-N-methyl-10,11-dihydro-5H-pyrrolo[2,1-c][1,4]benzodiazepine-3-carboxamide] |
| 94% | Cc1cc(C(=O)N2Cc3ccc(C(=O)N4CCN(CCCN(C)C)CC4)n3Cc3ccccc32)ccc1C1=CCCCC1 [Example 5, [10-(4-Cyclohex-1-en-1-yl-3-methyl-benzoyl)-10,11-dihydro-5H-pyrrolo[2,1-c][1,4]benzodiazepin-3-yl]-[4-(3-dimethylamino-propyl)-piperazin-1-yl]-methanone] |
| 91% | Cc1cc(C(=O)N2Cc3ccc(C(=O)N4CCN(CCCN(C)C)CC4)n3Cc3ccccc32)ccc1C1=CCCc2ccccc21 [Example 7, {10-[4-(3,4-Dihydro-naphthalen-1-yl)-3-methyl-benzoyl]-10,11-dihydro-5H-pyrrolo[2,1-c][1,4]benzodiazepin-3-yl}-[4-(3-dimethylamino-propyl)-piperazin-1-yl]-methanone] |
| 91% | CC1=C(c2ccc(C(=O)N3Cc4ccc(C(=O)N5CCN(C)CC5)n4Cc4ccccc43)cc2C)CCCC1O (centres unmarked) [Example 10, [4-(3-Hydroxy-2-methyl-cyclohex-1-en-1-yl)-3-methyl-phenyl]-[3-(4-methyl-piperazine-1carbonyl)-10,11-dihydro-5H-pyrrolo[2,1-c][1,4]benzodiazepin-10-yl]-methanone] |
| 86% | CC1=C(c2ccc(C(=O)N3Cc4ccc(C(=O)N5CCN(C)CC5)n4Cc4ccccc43)cc2C)CCC[C@H]1O [Example 11, [4-((3R)-3-Hydroxy-2-methyl-cyclohex-1-en-1-yl)-3-methyl-phenyl]-[3-(4-methyl-piperazine-1-carbonyl)-10,11-dihydro-5H-pyrrolo [2,1-c][1,4]benzodiazepin-10-yl]-methanone] |

same assay, conditions: value in parentheses, read-out: OT (IC50)

| Compound | IC50 |
| --- | --- |
| Cc1cc(C(=O)N2Cc3ccc(C(=O)N4CCN(C)CC4)n3Cc3ccccc32)ccc1C1=CCCCC1 [Example 4, [10-(4-Cyclohex-1-en-1-yl-3-methyl-benzoyl)-10,11-dihydro-5H-pyrrolo[2,1-c][1,4]benzodiazepin-3-yl]-(4-methyl-piperazin-1-yl)-methanone] | 7.47 nM |
| Cc1cc(C(=O)N2Cc3ccc(C(=O)N4CCN(C)CC4)n3Cc3ccccc32)ccc1C1=CCCc2ccccc21 [Example 6, {10-[4-(3,4-Dihydro-naphthalen-1-yl)-3-methyl-benzoyl]-10,11-dihydro-5H-benzo[e]pyrrolo[1,2-a][1,4]diazepin-3-yl}-(4-methyl-piperazin-1-yl)-methanone] | 25.3 nM |

The next lines start with the values.

| IC50 | Compound |
| --- | --- |
| 1.88 nM | COc1cc(C2=CCCCC2)c(Cl)cc1C(=O)N1Cc2ccc(C(=O)N3CCC[C@H]3CN3CCCC3)n2Cc2ccccc21 [Example 1, 4-Chloro-5-cyclohex-1-en-1-yl-2-[(3-{[(2S)-2-(pyrrolidin-1-ylmethyl)pyrrolidin-1-yl]carbonyl}-5H-pyrrolo [2,1-c][1,4]benzodiazepin-10(11H)-yl)carbonyl]phenyl methyl ether] |
| 9.04 nM | COc1cc(C2=CCCCC2)c(Cl)cc1C(=O)N1Cc2ccc(C(=O)N(C)CCCN(C)C)n2Cc2ccccc21 [Example 3, 10-(5-Chloro-4-cyclohex-1-en-1-yl-2-methoxybenzoyl)-N-[3-(dimethylamino)propyl]-N-methyl-10,11-dihydro-5H-pyrrolo[2,1-c][1,4]benzodiazepine-3-carboxamide citric acid salt] |

From US7326700B2, “Cyclohexenyl phenyl carboxamides tocolytic oxytocin receptor antagonists” (Wyeth, priority 2001, dated 2008)
